Results as given in article PMC9234961 (Journal of Medicinal Chemistry, 2022).
Like-named read-outs stand apart in the source and are kept apart here.

Legend:
kinases (468) [1] = biological target: kinases (468) (Homo sapiens, UniProt Q9UF33); conditions: EPHA6; 1000 nM
kinases (468) [2] = biological target: kinases (468) (Homo sapiens, UniProt P43405); conditions: kinase SYK (Entrez SYK); compound concentration 1000 nM
kinases (468) [3] = biological target: kinases (468) (Homo sapiens, UniProt Q00526); conditions: CDK3; 1000 nM
kinases (468) (Homo sapiens, UniProt Q00526), sequence (Q00526 whole entry): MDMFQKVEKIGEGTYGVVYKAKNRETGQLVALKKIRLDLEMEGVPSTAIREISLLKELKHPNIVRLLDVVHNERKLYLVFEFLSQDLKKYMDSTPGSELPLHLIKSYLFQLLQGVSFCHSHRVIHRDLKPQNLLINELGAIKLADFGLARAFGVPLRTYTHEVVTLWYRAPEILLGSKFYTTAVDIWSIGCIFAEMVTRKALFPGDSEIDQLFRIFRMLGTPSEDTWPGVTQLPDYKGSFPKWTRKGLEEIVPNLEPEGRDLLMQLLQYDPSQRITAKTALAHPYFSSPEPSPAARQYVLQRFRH

kinases (468) [4] = biological target: kinases (468) (Homo sapiens, UniProt P09619); conditions: PDGFRB; 1000 nM
kinases (468) [5] = biological target: kinases (468) (Homo sapiens, UniProt Q9H093); conditions: kinase SNARK (Entrez NUAK2); compound concentration 1000 nM
kinases (468) [6] = biological target: kinases (468) (Homo sapiens, UniProt P07947); conditions: kinase YES (Entrez YES1); compound concentration 1000 nM
kinases (468) [7] = biological target: kinases (468) (Homo sapiens, UniProt P11362); conditions: FGFR1; 1000 nM
kinases (468) (Homo sapiens, UniProt P11362), sequence (P11362 22-822): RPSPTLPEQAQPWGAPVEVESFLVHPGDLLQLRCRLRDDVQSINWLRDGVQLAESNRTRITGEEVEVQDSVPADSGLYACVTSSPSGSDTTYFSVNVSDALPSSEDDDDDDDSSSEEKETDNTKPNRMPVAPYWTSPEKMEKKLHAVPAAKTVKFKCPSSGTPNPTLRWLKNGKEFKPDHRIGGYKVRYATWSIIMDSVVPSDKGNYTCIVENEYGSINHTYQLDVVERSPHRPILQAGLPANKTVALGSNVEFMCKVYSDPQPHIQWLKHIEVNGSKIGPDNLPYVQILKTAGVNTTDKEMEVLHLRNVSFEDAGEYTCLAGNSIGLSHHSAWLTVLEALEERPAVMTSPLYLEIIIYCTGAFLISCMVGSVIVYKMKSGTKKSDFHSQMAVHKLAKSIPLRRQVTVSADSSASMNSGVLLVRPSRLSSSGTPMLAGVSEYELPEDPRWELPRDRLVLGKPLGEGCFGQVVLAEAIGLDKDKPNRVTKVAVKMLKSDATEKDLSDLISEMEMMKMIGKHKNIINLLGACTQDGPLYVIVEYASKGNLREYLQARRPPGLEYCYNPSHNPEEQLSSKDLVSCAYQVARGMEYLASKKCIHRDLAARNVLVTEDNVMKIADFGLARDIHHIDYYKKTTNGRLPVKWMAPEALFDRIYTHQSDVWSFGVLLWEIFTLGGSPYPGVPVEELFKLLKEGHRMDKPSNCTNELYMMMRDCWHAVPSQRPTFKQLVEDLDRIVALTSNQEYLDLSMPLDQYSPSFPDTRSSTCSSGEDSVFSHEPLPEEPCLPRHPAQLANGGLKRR

kinases (468) [8] = biological target: kinases (468) (Homo sapiens, UniProt P30530); conditions: AXL; 1000 nM
kinases (468) [9] = biological target: kinases (468) (Homo sapiens, UniProt Q9NY57); conditions: kinase YANK2 (Entrez STK32B); compound concentration 1000 nM
kinases (468) [10] = biological target: kinases (468) (Homo sapiens, UniProt P10721); conditions: 1000 nM
kinases (468) (Homo sapiens, UniProt P10721), sequence (P10721 26-976): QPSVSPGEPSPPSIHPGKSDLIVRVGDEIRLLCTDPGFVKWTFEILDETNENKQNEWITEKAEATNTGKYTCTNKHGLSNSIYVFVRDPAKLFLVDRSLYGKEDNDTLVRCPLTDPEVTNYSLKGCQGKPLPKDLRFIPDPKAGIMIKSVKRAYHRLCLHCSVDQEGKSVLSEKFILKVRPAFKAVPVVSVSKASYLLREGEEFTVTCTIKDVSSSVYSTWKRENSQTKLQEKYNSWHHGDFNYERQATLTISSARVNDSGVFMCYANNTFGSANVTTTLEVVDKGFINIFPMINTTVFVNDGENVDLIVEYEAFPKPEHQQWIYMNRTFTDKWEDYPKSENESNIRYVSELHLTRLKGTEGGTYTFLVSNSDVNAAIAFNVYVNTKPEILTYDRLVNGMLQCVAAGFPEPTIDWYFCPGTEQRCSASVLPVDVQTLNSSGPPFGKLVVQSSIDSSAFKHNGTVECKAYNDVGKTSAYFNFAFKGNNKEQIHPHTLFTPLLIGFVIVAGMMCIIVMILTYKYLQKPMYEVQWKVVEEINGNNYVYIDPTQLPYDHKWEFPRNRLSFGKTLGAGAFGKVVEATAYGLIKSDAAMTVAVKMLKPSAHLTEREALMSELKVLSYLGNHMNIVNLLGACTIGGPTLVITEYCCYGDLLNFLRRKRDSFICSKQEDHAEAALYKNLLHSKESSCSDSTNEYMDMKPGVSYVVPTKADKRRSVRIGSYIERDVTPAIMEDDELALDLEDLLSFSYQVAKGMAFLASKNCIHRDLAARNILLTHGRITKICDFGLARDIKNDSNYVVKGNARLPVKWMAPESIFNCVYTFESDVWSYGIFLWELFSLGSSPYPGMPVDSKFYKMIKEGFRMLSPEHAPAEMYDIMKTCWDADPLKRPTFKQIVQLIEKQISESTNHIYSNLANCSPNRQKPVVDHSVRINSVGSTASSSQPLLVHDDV

kinases (468) [11] = biological target: kinases (468) (Homo sapiens, UniProt P10721, D816H); conditions: KIT(D816H); 1000 nM
kinases (468) (Homo sapiens, UniProt P10721, D816H), sequence (P10721 26-976 D816H): as the sequence (P10721 26-976) above, with D791H counted along it

kinases (468) [12] = biological target: kinases (468) (Homo sapiens, UniProt P54760); conditions: EPHB4; 1000 nM
kinases (468) [13] = biological target: kinases (468) (Homo sapiens, UniProt P49674); conditions: CSNK1E; 1000 nM
kinases (468) [14] = biological target: kinases (468) (Homo sapiens, UniProt Q15208); conditions: NDR1 (STK38); 1000 nM
kinases (468) [15] = biological target: kinases (468) (Homo sapiens, UniProt P22607, G697C); conditions: FGFR3(G697C); 1000 nM
kinases (468) [16] = biological target: kinases (468) (Homo sapiens, UniProt Q02156); conditions: PRKCE; 1000 nM
kinases (468) [17] = biological target: kinases (468) (Homo sapiens, UniProt P06239); conditions: LCK; 1000 nM
kinases (468) [18] = biological target: kinases (468) (Homo sapiens, UniProt Q16539); conditions: p38-alpha (MAPK14); 1000 nM
kinases (468) [19] = biological target: kinases (468) (Homo sapiens, UniProt Q96L34); conditions: MARK4; 1000 nM
kinases (468) [20] = biological target: kinases (468) (Homo sapiens, UniProt Q02763); conditions: kinase TIE2 (Entrez TEK); compound concentration 1000 nM
kinases (468) (Homo sapiens, UniProt Q02763), sequence (Q02763 23-1124): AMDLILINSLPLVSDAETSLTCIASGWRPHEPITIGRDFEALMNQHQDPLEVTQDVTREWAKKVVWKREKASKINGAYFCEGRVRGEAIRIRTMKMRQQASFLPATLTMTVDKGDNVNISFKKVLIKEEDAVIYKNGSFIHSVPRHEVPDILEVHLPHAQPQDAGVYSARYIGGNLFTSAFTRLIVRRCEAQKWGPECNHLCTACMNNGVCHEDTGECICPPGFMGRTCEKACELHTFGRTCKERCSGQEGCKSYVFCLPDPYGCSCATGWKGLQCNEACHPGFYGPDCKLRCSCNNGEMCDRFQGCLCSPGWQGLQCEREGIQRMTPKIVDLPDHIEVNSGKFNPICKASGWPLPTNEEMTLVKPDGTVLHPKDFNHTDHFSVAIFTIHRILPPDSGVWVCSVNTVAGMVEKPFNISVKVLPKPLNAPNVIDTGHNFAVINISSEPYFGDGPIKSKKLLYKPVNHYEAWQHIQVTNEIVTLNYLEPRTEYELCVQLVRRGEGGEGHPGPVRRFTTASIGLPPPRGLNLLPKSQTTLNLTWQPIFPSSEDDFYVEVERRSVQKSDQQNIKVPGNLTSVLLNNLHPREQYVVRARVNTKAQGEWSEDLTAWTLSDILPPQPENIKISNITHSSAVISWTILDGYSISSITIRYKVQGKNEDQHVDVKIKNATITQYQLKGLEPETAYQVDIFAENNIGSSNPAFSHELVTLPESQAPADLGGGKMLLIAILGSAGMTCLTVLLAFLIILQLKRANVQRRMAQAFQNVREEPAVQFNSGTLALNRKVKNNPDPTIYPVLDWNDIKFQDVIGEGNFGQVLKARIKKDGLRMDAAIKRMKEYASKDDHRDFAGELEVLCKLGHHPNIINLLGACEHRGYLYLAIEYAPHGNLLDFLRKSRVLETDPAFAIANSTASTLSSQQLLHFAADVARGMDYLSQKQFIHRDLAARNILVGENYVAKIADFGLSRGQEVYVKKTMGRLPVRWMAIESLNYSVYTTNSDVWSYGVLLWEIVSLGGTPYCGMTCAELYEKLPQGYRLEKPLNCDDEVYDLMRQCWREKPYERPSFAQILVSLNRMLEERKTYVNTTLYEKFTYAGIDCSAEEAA

kinases (468) [21] = biological target: kinases (468) (Homo sapiens, UniProt P24941); conditions: CDK2; 1000 nM
kinases (468) [22] = biological target: kinases (468) (Homo sapiens, UniProt Q8NG66); conditions: NEK11; 1000 nM
kinases (468) [23] = biological target: kinases (468) (Homo sapiens, UniProt P29322); conditions: EPHA8; 1000 nM
kinases (468) [24] = biological target: kinases (468) (Homo sapiens, UniProt Q96PN8); conditions: kinase TSSK3 (Entrez TSSK3); compound concentration 1000 nM
kinases (468) [25] = biological target: kinases (468) (Homo sapiens, UniProt Q14012); conditions: CAMK1; 1000 nM
kinases (468) [26] = biological target: kinases (468) (Homo sapiens, UniProt Q9Y616); conditions: IRAK3; 1000 nM
kinases (468) (Homo sapiens, UniProt Q9Y616), sequence (Q9Y616 whole entry): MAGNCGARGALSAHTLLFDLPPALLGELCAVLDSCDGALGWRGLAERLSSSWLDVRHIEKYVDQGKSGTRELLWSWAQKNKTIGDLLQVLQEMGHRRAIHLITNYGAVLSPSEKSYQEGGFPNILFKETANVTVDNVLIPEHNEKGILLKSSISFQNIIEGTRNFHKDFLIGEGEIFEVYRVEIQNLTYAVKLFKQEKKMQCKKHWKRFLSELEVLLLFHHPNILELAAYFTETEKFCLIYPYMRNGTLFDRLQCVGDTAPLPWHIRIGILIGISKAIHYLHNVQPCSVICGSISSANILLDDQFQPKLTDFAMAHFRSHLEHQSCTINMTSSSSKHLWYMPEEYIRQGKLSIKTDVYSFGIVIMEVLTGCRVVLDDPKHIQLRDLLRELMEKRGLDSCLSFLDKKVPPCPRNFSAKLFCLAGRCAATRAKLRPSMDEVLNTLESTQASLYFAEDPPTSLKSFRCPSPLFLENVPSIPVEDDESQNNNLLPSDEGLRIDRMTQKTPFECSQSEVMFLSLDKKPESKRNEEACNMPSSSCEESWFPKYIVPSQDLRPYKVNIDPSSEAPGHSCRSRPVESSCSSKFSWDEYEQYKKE

kinases (468) [27] = biological target: kinases (468) (Homo sapiens, UniProt P48730); conditions: CSNK1D; 1000 nM
kinases (468) [28] = biological target: kinases (468) (Homo sapiens, UniProt P07949, V804L); conditions: kinase RET(V804L) (Entrez RET); compound concentration 1000 nM
kinases (468) [29] = biological target: kinases (468) (Homo sapiens, UniProt P41240); conditions: CSK; 1000 nM
kinases (468) [30] = biological target: kinases (468) (Homo sapiens, UniProt Q15139); conditions: PRKD1; 1000 nM
kinases (468) [31] = biological target: kinases (468) (Homo sapiens, UniProt Q56UN5); conditions: kinase YSK4 (Entrez MAP3K19); compound concentration 1000 nM
kinases (468) [32] = biological target: kinases (468) (Homo sapiens, UniProt Q08881); conditions: ITK; 1000 nM
kinases (468) [33] = biological target: kinases (468) (Homo sapiens, UniProt O75460); conditions: ERN1; 1000 nM
kinases (468) [34] = biological target: kinases (468) (Homo sapiens, UniProt Q8TF76); conditions: HASPIN (GSG2); 1000 nM
kinases (468) [35] = biological target: kinases (468) (Homo sapiens, UniProt P10721, V559D); conditions: KIT(V559D); 1000 nM
kinases (468) (Homo sapiens, UniProt P10721, V559D), sequence (P10721 26-976 V559D): as the sequence (P10721 26-976) above, with V534D counted along it

kinases (468) (Homo sapiens, UniProt Q9UF33), sequence (Q9UF33 23-1036): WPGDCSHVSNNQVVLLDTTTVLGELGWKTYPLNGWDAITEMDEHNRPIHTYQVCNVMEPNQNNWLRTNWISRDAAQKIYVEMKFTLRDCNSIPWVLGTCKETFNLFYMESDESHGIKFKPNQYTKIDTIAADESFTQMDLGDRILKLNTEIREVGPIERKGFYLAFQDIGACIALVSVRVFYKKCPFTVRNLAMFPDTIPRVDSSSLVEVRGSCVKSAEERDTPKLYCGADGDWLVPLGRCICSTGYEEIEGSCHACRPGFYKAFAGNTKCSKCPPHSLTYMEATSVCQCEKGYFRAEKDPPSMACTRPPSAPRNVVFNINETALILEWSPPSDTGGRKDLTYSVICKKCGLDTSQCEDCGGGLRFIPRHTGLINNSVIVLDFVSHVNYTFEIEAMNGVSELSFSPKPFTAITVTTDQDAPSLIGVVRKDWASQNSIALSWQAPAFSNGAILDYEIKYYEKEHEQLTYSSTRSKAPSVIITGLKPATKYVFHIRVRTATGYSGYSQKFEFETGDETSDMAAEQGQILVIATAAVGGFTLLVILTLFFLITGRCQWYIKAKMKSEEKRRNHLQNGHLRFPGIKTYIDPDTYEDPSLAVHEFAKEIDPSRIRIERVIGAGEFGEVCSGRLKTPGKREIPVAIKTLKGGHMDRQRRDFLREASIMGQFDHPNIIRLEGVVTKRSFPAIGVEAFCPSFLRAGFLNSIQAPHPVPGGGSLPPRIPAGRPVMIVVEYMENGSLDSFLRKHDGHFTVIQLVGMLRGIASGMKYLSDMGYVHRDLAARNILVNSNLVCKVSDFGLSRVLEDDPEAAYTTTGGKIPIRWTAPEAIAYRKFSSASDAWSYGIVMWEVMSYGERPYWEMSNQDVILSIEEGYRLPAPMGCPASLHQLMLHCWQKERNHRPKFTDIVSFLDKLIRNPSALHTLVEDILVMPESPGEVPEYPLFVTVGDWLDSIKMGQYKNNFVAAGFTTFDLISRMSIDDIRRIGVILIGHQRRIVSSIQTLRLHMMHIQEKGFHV

## C[C@H]1C[C@@H](O)CN(c2ncc(Cl)c(Nc3ccc4c(c3)c3c(c(=O)n4C)OCC(F)(F)[C@H](C4CC4)N3)n2)C1 [CCT373566_9A]
Kinases (468) [1]
  Percent Control: 100%
Kinases (468) [2]
  Percent Control: 98%
Kinases (468) [3]
  Percent Control: 100%
Kinases (468) [4]
  Percent Control: 98%
Kinases (468) [5]
  Percent Control: 100%
Kinases (468) [6]
  Percent Control: 99%
Kinases (468) [7]
  Percent Control: 100%
Kinases (468) [8]
  Percent Control: 95%
Kinases (468) [9]
  Percent Control: 90%
Kinases (468) [10]; KIT-autoinhibited
  Percent Control: 90%
Kinases (468) [10]; KIT
  Percent Control: 100%
Kinases (468) [11]
  Percent Control: 87%
Kinases (468) [12]
  Percent Control: 100%
Kinases (468) [13]
  Percent Control: 90%
Kinases (468) [14]
  Percent Control: 100%
Kinases (468) [15]
  Percent Control: 99%
Kinases (468) [16]
  Percent Control: 98%
Kinases (468) [17]
  Percent Control: 100%
Kinases (468) [18]
  Percent Control: 96%
Kinases (468) [19]
  Percent Control: 100%
Kinases (468) [20]
  Percent Control: 100%
Kinases (468) [21]
  Percent Control: 96%
Kinases (468) [22]
  Percent Control: 95%
Kinases (468) [23]
  Percent Control: 100%
Kinases (468) [24]
  Percent Control: 72%
Kinases (468) [25]
  Percent Control: 89%
Kinases (468) [26]
  Percent Control: 100%
Kinases (468) [27]
  Percent Control: 99%
Kinases (468) [28]
  Percent Control: 100%
Kinases (468) [29]
  Percent Control: 86%
Kinases (468) [30]
  Percent Control: 98%
Kinases (468) [31]
  Percent Control: 100%
Kinases (468) [32]
  Percent Control: 100%
Kinases (468) [33]
  Percent Control: 92%
Kinases (468) [34]
  Percent Control: 100%
Kinases (468) [35]
  Percent Control: 100%
